From paper PMC4366505, “Triggering HIV polyprotein processing by light using rapid photodegradation of a tight-binding protease inhibitor” (Nature Communications, 2015)
Where two headings read alike, the source gives them in different places.

What was measured:
[1] = Solubility in culture conditions; format: physicochemical; settings: 2 μM in 0.5% DMSO
[2] = test system: HIV-1 replication in MT-4 cells; assay: Anti-HIV-1 activity in MT-4 cells (HIV-1 NL4-3 hRluc, Renilla luciferase); settings: Human immunodeficiency virus 1, MT4, 72 h, read-out: EC50, inhibition of HIV-1 replication
Procedure: (§3) Cytotoxicity was determined by incubating two-fold serial dilutions of 1 in triplicate in a 96-well plate
(§4) with 30,000 HEK293T cells/well seeded day ago in Dulbecco’s modified Eagle’s medium with L-
(§5) glutamine supplemented with 10% fetal calf serum (FCS, PAA), 100 U of penicillin/mL, 100 µg of
(§6) streptomycin/mL (Sigma-Aldrich) and with 30,000 MT-4 cells (obtained through the NIH AIDS
(§7) medium with 2 mM L-glutamine (PAA) supplemented with 10% FCS, 10 mM HEPES (Sigma-Aldrich),
(§8) 100 U of penicillin/ml, and 100 µg of streptomycin/mL. After 72 h of incubation at 37 °C, 5 % CO2,
(§9) tetrazolium salt XTT (Sigma-Aldrich) was added to the wells for 4 h and formation of colored
(§10) formazan solution was quantified using Victor X3 plate reader (Perkin Elmer). The percentage of
(§11) cytopathic effect (CPE) was plotted against the log10 1 concentrations and the 50 % cytotoxic
(§12) concentrations (CC50) were calculated using nonlinear regression analysis with GraphPad Prism ver. 6
(§13) 1NL4-3hRluc (HIV expressing human Renilla luciferase12) at multiplicity of infection 0.001 IU/ml for 1 h at […]
(§14) dilutions of 1. After 72 h incubation at 37 °C, 5 % CO2 HIV-1 activity was quantified by measuring
(§15) Renilla luciferase luminescence using the Renilla Luciferase Assay System (Promega) in Victor X3
(§16) plate reader. Percentage of inhibition of luminescence activity was plotted against the log10 1 […]

[3] = molecular target: T1, purified recombinant HIV-1 PR (Human immunodeficiency virus type 1 group M subtype B, UniProt P04585); assay: Reactivation of inhibited HIV-1 PR by photolysis at 405 nm, capillary set up; format: biochemical
T1 construct: This 99 amino acid long homodimeric aspartic PR; made in house; host or cells: Escherichia coli BL21(DE3) RIL
Procedure: (§1) To evaluate the efficacy of photodegradation, we analyzed the restoration of HIV-1 PR activity that had been inhibited by compound 1 (Fig. 3a) on irradiation at 405 nm. For irradiation, two lasers with outputs of 130 mW and 170 mW, respectively, were used in parallel. First, we tested a standard cuvette set up, in which 8 nM purified recombinant HIV-1 PR (final concentration of compound 1: 10 or 100 nM; Fig. 3b) in 1 ml cleavage buffer was irradiated. At the lower concentration, irradiation led to a significant restoration of enzyme activity (65% compared with the uninhibited enzyme reaction). At the higher concentration of compound 1, however, PR reactivation was limited even after prolonged irradiation (only 35% activity after 5 min of irradiation). […]
(§2) Figure 3 Kinetic analysis of HIV-1 PR reactivation by inhibitor photodegradation. […] The activity of purified recombinant HIV-1 PR was determined in vitro as described in the experimental section in the presence of the indicated inhibitor concentrations. […] The PR activity was then measured using a chromogenic substrate. […] Relative PR activity was determined as in b after 20-fold dilution into cleavage buffer using the same chromogenic substrate (for details, see Experimental section) and plotted against the flow rate of the sample through the capillary. […]

[4] = Cytotoxicity, XTT, HEK293T cells; settings: human, HEK293T cells
Procedure: as §3, §4, §5, §6, §7, §8, §9, §10, §11, §12, §13, §14, §15, §16

HEK293T cells = assay: Cytotoxicity, XTT, HEK293T cells; settings: 2 μM in 0.5% DMSO; cell line not given
[5] = test system: HIV-1 PR inside immature HIV-1 particles; assay: Photoinduced Gag processing in immature HIV-1 particles produced with inhibitor (capillary irradiation, quantitative immunoblot); format: cell-based
Procedure: Having established conditions for the inhibition of HIV-1 polyprotein processing by compound 1, we proceeded to prepare immature particles for in situ activation of PR. For this, virus particles were produced in transfected HEK293T cells grown in the presence of 2 μM inhibitor. The experimental set up is schematically illustrated in Fig. 5a. Particles collected from inhibitor-treated cells were either subjected to inhibitor wash-out by two subsequent ultracentrifugation steps (Fig. 5b), or only filtered to remove cell debris (Fig. 5c). In both cases, samples were then either irradiated (405 nm) in a glass capillary (Fig. 5b,c, bottom panels) or passed through the capillary in the absence of irradiation (Fig. 5b,c, top panels).
Figure 5 Photoinduced Gag processing in the context of the assembled virion. (a) Schematic illustration of the irradiation experiment to trigger HIV-1 maturation using photoinactivation of compound 1. HEK293T cells were transfected with a proviral HIV-1 plasmid and particles were produced in the presence of 2 μM compound 1. At 44 h post transfection, tissue culture supernatant was harvested and either subjected to ultracentrifugation (b,d) or used directly (c,e). In both cases, samples were then pumped through the capillary set up shown in Supplementary Fig. 4 either with or without ultraviolet irradiation. Subsequently, samples were incubated for various lengths of time. (b,c) Immunoblot analysis of Gag processing products. Samples were separated by SDS–PAGE, and products of Gag processing were detected by quantitative immunoblot (LiCor) using antiserum raised against recombinant HIV-1 CA. The figures show samples incubated for the indicated times without prior irradiation or following irradiation, respectively. Positions of Gag-derived proteins are indicated. (d,e) Quantitative analysis of the experiments shown in b or c, respectively. Anti-CA reactive bands from the immunoblots shown and from corresponding blots from irradiated mature control virus produced in the absence of inhibitor (not shown here) were quantified using Image Studio Light. The graphs show the proportion of mature CA relative to the sum of all anti-CA reactive bands in the respective lane. Filled triangles, irradiated control virus; open circles, inhibitor-treated virus, not irradiated; filled circles, inhibitor-treated virus, irradiated. Curves through data from inhibitor-treated samples represent fits to a single exponential equation. The results are representative of several independent experiments with a slight variation in the half-time of Gag polyprotein processing between 20 and 30 min. CA, capsid; MA, matrix.
HEK293T cells were seeded in six-well plates in high-glucose, phenol red-free DMEM supplemented with penicillin/streptomycin and 10% foetal calf serum. On the following day, cells were transfected with plasmid pCHIV[37] using polyethyleneimine according to standard procedures. A final concentration of 2 μM compound 1 or DMSO (vehicle) was added to the tissue culture medium at the time of transfection. At 44 h post transfection, tissue culture supernatants were harvested, adjusted to pH 6.0 using PR buffer (50 mM MES, pH 6.0, 150 mM NaCl, 2 mM DTT, 1 mM EDTA). Alternatively, supernatants were harvested, filtered, inhibitor was removed by two successive ultracentrifugation steps through a 20% sucrose cushion and the particle pellet was resuspended in PR buffer. […]

[6] = molecular target: T1, purified recombinant HIV-1 PR; assay: Inhibition of HIV-1 PR, spectrophotometric assay with chromogenic substrate (Morrison equation); format: biochemical
Procedure: Ki values were determined by spectrophotometric assay using purified recombinant HIV-1 PR and the chromogenic substrate KARVNleNphEaNle-NH2. Data were analyzed using the Morrison equation[35].

[7] = test system: HIV-1 Gag polyprotein processing; assay: Inhibition of HIV-1 Gag polyprotein processing in particles from transfected HEK293T cells (immunoblot); format: cell-based; settings: Human immunodeficiency virus 1, HEK-293T; particles from HEK293T cells transfected with HIV-1 proviral plasmid; read-out: concentration giving ~50% reduction in Gag cleavage
Procedure: PR-mediated cleavage of the Gag polyprotein yields the mature structural proteins and two small spacer peptides (Fig. 4a), and different rates of cleavage at individual sites result in the generation of characteristic processing intermediates. First, we assessed the inhibitory potency of compound 1 on HIV-1 Gag polyprotein processing in virus producing cells. For this, particles were purified from the supernatant of HEK293T cells transfected with an HIV-1 proviral plasmid and incubated in the presence of various concentrations of compound 1.
Figure 4 Inhibition of HIV-1 Gag processing by compound 1. (a) Schematic representation of the 55 kDa HIV-1 Gag polyprotein and its cleavage products. (b) Inhibition of HIV-1 Gag processing by compound 1. HIV-1 particles were produced in HEK293T cells in the presence of the indicated inhibitor concentrations. […]
Samples were separated by SDS–PAGE (17.5%; acrylamide:bisacrylamide 200:1), and proteins were transferred to a nitrocellulose membrane by semi-dry blotting. HIV-1 Gag-derived proteins were detected using rabbit polyclonal antiserum raised against HIV-1 CA, followed by fluorescently labelled goat-anti rabbit secondary antibody (LiCor). Quantification of anti-CA reactive bands was performed using an infrared imaging system (LiCor Odyssey) and Image Studio Lite software. Data were analyzed with GraphPad prism.

[8] = Cytotoxicity, XTT, MT-4 cells; settings: human
Procedure: as §3, §4, §5, §6, §7, §8, §9, §10, §11, §12, §13, §14, §15, §16

[9] = molecular target: T1, purified recombinant HIV-1 PR; assay: Reactivation of inhibited HIV-1 PR by photolysis at 405 nm, cuvette set up; format: biochemical; settings: 8 nM PR
Procedure: as §1, with “reaction).” for “reaction). At the higher concentration of compound 1, however, PR reactivation was limited even after prolonged irradiation (only 35% activity after 5 min of irradiation).”
as §2
Cuvette set up. […] The enzyme activity (and thus the efficacy of photodegradation) was followed by the decrease in absorbance at 305 nm.

Structure (SMILES)	solubility [1]	EC50 [2] [nM]	compound degraded by irradiation (estimate) ([3]; estimated from 75% restored PR activity)	original PR activity recovered ([3]; flow rate 15 μl min^−1, inhibitor concentration 100 nM, 405 nm)	CC50 at 72 h [4] [nM]	cytotoxicity at working concentration (HEK293T cells)	Gag processing after irradiation ([5]; culture medium without inhibitor removal, irradiated at 405 nm)	Gag processing without irradiation ([5]; culture medium without inhibitor removal, no irradiation, prolonged incubation)	mature CA (proportion of all anti-CA reactive bands) ([5]; inhibitor wash-out by ultracentrifugation, then irradiated at 405 nm, within 15 min, particles produced with 2 μM)	unprocessed or partially processed Gag products remaining ([5]; inhibitor wash-out, then irradiated, at 6 h of incubation)	half-time of Gag processing after irradiation ([5]; particles produced with 2 μM inhibitor, irradiated at 405 nm in capillary)	Ki [6] [nM]	difference in Ki values for RTV and compound 1 ([6]; RTV more potent) [fold]	loss of potency on irradiation ([6]; irradiation with a 405 nm laser, inhibitor versus photolysis product)	IC50 [7] [nM]	CC50 at 72 h [8] [nM]	remaining activity at 0.01 µM ([9]; 10 nM compound 1, 405 nm irradiation, read-out: restoration of enzyme activity compared with the uninhibited enzyme reaction) [%]	PR activity after irradiation ([9]; 100 nM compound 1, after 5 min of irradiation at 405 nm) [%]	Ki ([6]; purified recombinant HIV-1 PR, chromogenic substrate KARVNleNphEaNle-NH2, read-out: Ki) [nM]
CCN(CC)c1ccc2c(COC(=O)N[C@H](C(=O)N[C@@H](Cc3ccccc3)C[C@H](O)[C@H](Cc3ccccc3)NC(=O)OCc3cncs3)C(C)C)cc(=O)oc2c1 [compound 1]	soluble	8.1	up to 98%	up to 75%	> 50000	noncytotoxic	virtually complete Gag processing	no induction of proteolysis	~ 30%	~ 50%	~ 20 min	0.17 ± 0.02	10	4 orders of magnitude	~500	7300	65	35	–
CC(C)[C@H](N)C(=O)N[C@@H](Cc1ccccc1)C[C@H](O)[C@H](Cc1ccccc1)NC(=O)OCc1cncs1 [compound 2]	–	–	–	–	–	–	–	–	–	–	–	–	–	–	–	–	–	–	3200 ± 300
